Results: ChEMBL document CHEMBL3045586, “Synthesis and antimicrobial activity of some new 4-triazolylmethoxy-2H-chromen-2-one derivatives” (2012)
Converted amounts (≈) assume the structure as drawn.

Assays:
Klebsiella pneumoniae [1] = experiment: Antibacterial activity against Klebsiella pneumoniae MTCC 432 after 16 to 18 hr by serial dilution method; type: functional
Aspergillus niger [2] = experiment: Antifungal activity against Aspergillus niger MTCC 282 at […] to […] ug/ml after 28 to 30 hr by cup-plate method; type: functional
Aspergillus fumigatus [3] = experiment: Antifungal activity against Aspergillus fumigatus MTCC 343 at […] to […] ug/ml after 28 to 30 hr by cup-plate method; type: functional
Klebsiella pneumoniae [4] = type: functional, MTCC 432
[5] = system: Staphylococcus epidermidis; type: functional, MTCC 435
Aspergillus niger [6] = experiment: Antifungal activity against Aspergillus niger MTCC 282 after 28 to 30 hr by serial dilution method; type: functional
Aspergillus flavus [7] = experiment: Antifungal activity against Aspergillus flavus MTCC 277 at […] to […] ug/ml after 28 to 30 hr by cup-plate method; type: functional
Escherichia coli [8] = experiment: Antibacterial activity against Escherichia coli MTCC 443 after 16 to 18 hr by serial dilution method; type: functional
Salmonella typhi [9] = experiment: Antibacterial activity against Salmonella enterica subsp. enterica serovar Typhi MTCC 733 at […] to […] ug/ml after 16 to 18 hr by cup-plate method; type: functional
Candida albicans [10] = type: functional, MTCC 227
Pseudomonas aeruginosa [11] = type: functional, MTCC 424
Staphylococcus aureus [12] = type: functional, MTCC 096
Candida albicans [13] = experiment: Antifungal activity against Candida albicans MTCC 227 after 28 to 30 hr by serial dilution method; type: functional
Escherichia coli [14] = type: functional, MTCC 443
Bacillus subtilis [15] = experiment: Antibacterial activity against Bacillus subtilis MTCC 441 after 16 to 18 hr by serial dilution method; type: functional
Staphylococcus aureus [16] = experiment: Antibacterial activity against Staphylococcus aureus MTCC 096 after 16 to 18 hr by serial dilution method; type: functional
[17] = system: Staphylococcus epidermidis; experiment: Antibacterial activity against Staphylococcus epidermidis MTCC 435 after 16 to 18 hr by serial dilution method; type: functional
Pseudomonas aeruginosa [18] = experiment: Antibacterial activity against Pseudomonas aeruginosa MTCC 424 after 16 to 18 hr by serial dilution method; type: functional
Bacillus subtilis [19] = type: functional, MTCC 441
Aspergillus fumigatus [20] = experiment: Antifungal activity against Aspergillus fumigatus MTCC 343 after 28 to 30 hr by serial dilution method; type: functional
Salmonella typhi [21] = experiment: Antibacterial activity against Salmonella enterica subsp. enterica serovar Typhi MTCC 733 after 16 to 18 hr by serial dilution method; type: functional
Aspergillus flavus [22] = experiment: Antifungal activity against Aspergillus flavus MTCC 277 after 28 to 30 hr by serial dilution method; type: functional

Compound | MIC (Klebsiella pneumoniae [1]) [µg/mL] | inhibition zone (IZ) (Aspergillus niger [2]) [mm] | inhibition zone (IZ) (Aspergillus fumigatus [3]) [mm] | inhibition zone (IZ) (Klebsiella pneumoniae [4]) [mm] | inhibition zone (IZ) [5] [mm] | MIC (Aspergillus niger [6]) [µg/mL] | inhibition zone (IZ) (Aspergillus flavus [7]) [mm] | MIC (Escherichia coli [8]) [µg/mL] | inhibition zone (IZ) (Salmonella typhi [9]) [mm] | inhibition zone (IZ) (Candida albicans [10]) [mm] | inhibition zone (IZ) (Pseudomonas aeruginosa [11]) [mm] | inhibition zone (IZ) (Staphylococcus aureus [12]) [mm] | MIC (Candida albicans [13]) [µg/mL] | inhibition zone (IZ) (Escherichia coli [14]) [mm] | MIC (Bacillus subtilis [15]) [µg/mL] | MIC (Staphylococcus aureus [16]) [µg/mL] | MIC [17] [µg/mL] | MIC (Pseudomonas aeruginosa [18]) [µg/mL] | MIC (Aspergillus fumigatus [20]) [µg/mL] | MIC (Aspergillus flavus [22]) [µg/mL] | further results
O=c1cc(OCc2nnc(-c3ccc(O)cc3)[nH]2)c2ccccc2o1 | 6.25 (≈ 18.6 µM) | 12 | 12 | 14 | 11 | 12.5 (≈ 37.3 µM) | <10 | 6.25 (≈ 18.6 µM) | 10 | 15 | <10 | 11 | 6.25 (≈ 18.6 µM) | 14 | 50 (≈ 149 µM) | 12.5 (≈ 37.3 µM) | 12.5 (≈ 37.3 µM) | 50 (≈ 149 µM) | 12.5 (≈ 37.3 µM) | 25 (≈ 74.6 µM) | inhibition zone (IZ) (Bacillus subtilis [19]): <10 mm; MIC (Salmonella typhi [21]): 25 µg/mL (≈ 74.6 µM)
Cc1ccc(-c2nnc(COc3cc(=O)oc4ccccc34)[nH]2)cc1 | 12.5 (≈ 37.5 µM) | 13 | 11 | 13 | <10 | 6.25 (≈ 18.7 µM) | <10 | 12.5 (≈ 37.5 µM) | 12 | 15 | 11 | 11 | 6.26 (≈ 18.8 µM) | 11 | 12.5 (≈ 37.5 µM) | 12.5 (≈ 37.5 µM) | 50 (≈ 150 µM) | 12.5 (≈ 37.5 µM) | 25 (≈ 75 µM) | 25 (≈ 75 µM) | inhibition zone (IZ) (Bacillus subtilis [19]): 11 mm; MIC (Salmonella typhi [21]): 12.5 µg/mL (≈ 37.5 µM)
O=c1cc(OCc2nnc(-c3ccc(Br)cc3)[nH]2)c2ccccc2o1 | 6.25 (≈ 15.7 µM) | 11 | <10 | 13 | <10 | 12.5 (≈ 31.4 µM) | 12 | 6.25 (≈ 15.7 µM) | 11 | 12 | <10 | 11 | 6.25 (≈ 15.7 µM) | 15 | 12.5 (≈ 31.4 µM) | 12.5 (≈ 31.4 µM) | 50 (≈ 126 µM) | 25 (≈ 62.8 µM) | 25 (≈ 62.8 µM) | 12.5 (≈ 31.4 µM) | inhibition zone (IZ) (Bacillus subtilis [19]): 12 mm; MIC (Salmonella typhi [21]): 12.5 µg/mL (≈ 31.4 µM)
COc1ccc(-c2nnc(COc3cc(=O)oc4ccccc34)[nH]2)cc1 | 6.25 (≈ 17.9 µM) | 12 | <10 | 14 | <10 | 6.25 (≈ 17.9 µM) | <10 | 12.5 (≈ 35.8 µM) | <10 | 14 | <10 | 13 | 6.25 (≈ 17.9 µM) | 11 | 12.5 (≈ 35.8 µM) | 6.25 (≈ 17.9 µM) | 25 (≈ 71.6 µM) | 50 (≈ 143 µM) | 25 (≈ 71.6 µM) | 25 (≈ 71.6 µM) | inhibition zone (IZ) (Bacillus subtilis [19]): 11 mm; MIC (Salmonella typhi [21]): 25 µg/mL (≈ 71.6 µM)
O=c1cc(OCc2nnc(-c3ccccc3)[nH]2)c2ccccc2o1 | 12.5 (≈ 39.1 µM) | 13 | 11 | 11 | 12 | 12.5 (≈ 39.1 µM) | 12 | 12.5 (≈ 39.1 µM) | <10 | 14 | 11 | 11 | 6.25 (≈ 19.6 µM) | 12 | 12.5 (≈ 39.1 µM) | 12.5 (≈ 39.1 µM) | 12.5 (≈ 39.1 µM) | 12.5 (≈ 39.1 µM) | 12.5 (≈ 39.1 µM) | 12.5 (≈ 39.1 µM) | inhibition zone (IZ) (Bacillus subtilis [19]): 11 mm; MIC (Salmonella typhi [21]): 25 µg/mL (≈ 78.3 µM)
Clc1ccc(COC(Cn2ccnc2)c2ccc(Cl)cc2Cl)c(Cl)c1 (stereo not drawn) [MICONAZOLE] |  | 17 | 14 |  |  | 6.25 (≈ 15 µM) | 17 |  |  | 15 |  |  | 6.25 (≈ 15 µM) |  |  |  |  |  | 12.5 (≈ 30 µM) | 6.25 (≈ 15 µM) | 
